Reference: the supplement of paper PMC12513837
± gives the standard deviation of the averaged measurements.

Compound: CC(=O)N1CCc2c(c(N3CCCc4cc(-c5cnn(C)c5)c(C(F)F)cc43)nn2C2CCC(CN3CCN(c4ccc5c(c4)C(=O)N(C4CCC(=O)NC4=O)C5=O)CC3)CC2)C1 [CBPD-409]
Test: AUC of viability dose-response curve (relative to vehicle, 8 doses up to 10 µM) (fraction); higher = less sensitive (more viable); extreme values may be limits of the assay
Method: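 PRISM multiplexed pooled barcoded cell line viability screen at the Broad Institute, 887 cancer cell lines treated with CBPD-409 (p300/CBP PROTAC degrader) at 8 concentrations in threefold dilution, top dose 10 µM. The read-out is the area under the dose-response curve of relative viability versus vehicle (n=3). AUC < 0.3 is called strongly sensitive and AUC > 0.8 resistant.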

| Test System | AUC of viability dose-response curve |
| --- | --- |
| SNU201_CENTRAL_NERVOUS_SYSTEM | 0.382 |
| A2780_OVARY | 0.625 |
| HS729_SOFT_TISSUE | 0.807 ± 0.27 |
| KYSE450_OESOPHAGUS | 0.761 |
| GP2D_LARGE_INTESTINE | 0.847 |
| PF382_HAEMATOPOIETIC_AND_LYMPHOID_TISSUE | 0.566 |
| P12ICHIKAWA_HAEMATOPOIETIC_AND_LYMPHOID_TISSUE | 0.739 |
| CCK81_LARGE_INTESTINE | 0.86 |
| WSUDLCL2_HAEMATOPOIETIC_AND_LYMPHOID_TISSUE | 0.505 |
| NCIH841_LUNG | 0.855 |
| PANC0504_PANCREAS | 0.671 |
| SIMA_AUTONOMIC_GANGLIA | 0.3 ± 0.073 |
| OACM51_OESOPHAGUS | 1 |
| EKVX_LUNG | 1 |
| SW626_LARGE_INTESTINE | 0.387 |
| JHOM1_OVARY | 0.99 |
| HCC2108_LUNG | 0.793 |
| CALU1_LUNG | 0.901 |
| HCC15_LUNG | 1 |
| FLO1_OESOPHAGUS | 0.731 |
| CORL23_LUNG | 1 |
| JHUEM2_ENDOMETRIUM | 0.965 |
| PACADD137_PANCREAS | 0.587 |
| 42MGBA_CENTRAL_NERVOUS_SYSTEM | 0.485 |

| Test System | AUC of viability dose-response curve |
| --- | --- |
| BICR56_UPPER_AERODIGESTIVE_TRACT | 0.862 |
| HS611T_HAEMATOPOIETIC_AND_LYMPHOID_TISSUE | 0.742 |
| SKMEL24_SKIN | 1 |
| SF539_CENTRAL_NERVOUS_SYSTEM | 1 |
| KURAMOCHI_OVARY | 0.967 |
| PANC0327_PANCREAS | 1 |
| SNU685_ENDOMETRIUM | 1 |
| EBC1_LUNG | 0.537 |
| BT474_BREAST | 0.643 |
| MDAMB231_BREAST | 0.701 |
| SW1463_LARGE_INTESTINE | 1 |
| WM1799_SKIN | 0.639 |
| BECKER_CENTRAL_NERVOUS_SYSTEM | 0.88 |
| NCIH1435_LUNG | 1 |
| UPCISCC072_UPPER_AERODIGESTIVE_TRACT | 0.625 |
| ALLSIL_HAEMATOPOIETIC_AND_LYMPHOID_TISSUE | 0.917 |
| CL11_LARGE_INTESTINE | 0.326 |
| MDAMB468_BREAST | 0.97 |
| ACHN_KIDNEY | 0.807 |
| MCC26_SKIN | 0.98 |
| NCIH524_LUNG | 1 |
| NCIH522_LUNG | 0.942 |
| JOPACA1_PANCREAS | 1 |
| HSC5_SKIN | 0.644 |

| Test System | AUC of viability dose-response curve |
| --- | --- |
| SUDHL1_HAEMATOPOIETIC_AND_LYMPHOID_TISSUE | 0.75 |
| SF126_CENTRAL_NERVOUS_SYSTEM | 0.521 |
| MM127_SKIN | 1 |
| KYSE140_OESOPHAGUS | 1 |
| HTMMT_ENDOMETRIUM | 0.65 |
| GAMG_CENTRAL_NERVOUS_SYSTEM | 0.77 |
| ESS1_ENDOMETRIUM | 0.901 |
| HEP3B217_LIVER | 0.4 |
| MDAMB436_BREAST | 0.505 |
| BC3C_URINARY_TRACT | 1 |
| COGE352_BONE | 1 |
| GB1_CENTRAL_NERVOUS_SYSTEM | 0.595 |
| SJSA1_BONE | 0.673 ± 0.46 |
| BICR31_UPPER_AERODIGESTIVE_TRACT | 0.695 |
| PECAPJ49_UPPER_AERODIGESTIVE_TRACT | 0.455 |
| SNU638_STOMACH | 0.48 |
| J82_URINARY_TRACT | 0.921 |
| EWS502_BONE | 0.749 ± 0.15 |
| MCC142_SKIN | 0.969 |
| TYKNU_OVARY | 0.386 |
| BICR6_UPPER_AERODIGESTIVE_TRACT | 0.907 |
| SNU119_OVARY | 1 |
| M059K_CENTRAL_NERVOUS_SYSTEM | 0.673 |
| TE5_OESOPHAGUS | 0.998 |

| Test System | AUC of viability dose-response curve |
| --- | --- |
| SH10TC_STOMACH | 0.626 |
| HS294T_SKIN | 0.929 |
| JURLMK1_HAEMATOPOIETIC_AND_LYMPHOID_TISSUE | 0.361 |
| CAL27_UPPER_AERODIGESTIVE_TRACT | 0.961 |
| KARPAS1718_HAEMATOPOIETIC_AND_LYMPHOID_TISSUE | 0.585 |
| RT112_URINARY_TRACT | 0.83 |
| HMC18_BREAST | 0.932 |
| YD15_SALIVARY_GLAND | 0.397 |
| IM95_STOMACH | 0.57 |
| SNU719_STOMACH | 0.969 |
| MPP89_PLEURA | 1 |
| KE39_STOMACH | 1 |
| G415_BILIARY_TRACT | 0.902 |
| CW2_LARGE_INTESTINE | 1 |
| NP2_CENTRAL_NERVOUS_SYSTEM | 0.868 |
| HCC1954_BREAST | 1 |
| CAL33_UPPER_AERODIGESTIVE_TRACT | 0.694 |
| AMO1_HAEMATOPOIETIC_AND_LYMPHOID_TISSUE | 0.46 |
| WM983B_SKIN | 0.774 |
| KYSE270_OESOPHAGUS | 0.722 |
| UMRC3_KIDNEY | 0.929 |
| SNU601_STOMACH | 0.563 |
| BT16_SOFT_TISSUE | 1 |
| SNUC4_LARGE_INTESTINE | 0.595 |

| Test System | AUC of viability dose-response curve |
| --- | --- |
| A3KAW_HAEMATOPOIETIC_AND_LYMPHOID_TISSUE | 0.325 |
| L82_HAEMATOPOIETIC_AND_LYMPHOID_TISSUE | 0.44 |
| SKNMC_BONE | 0.996 |
| UPCISCC111_UPPER_AERODIGESTIVE_TRACT | 1 |
| UMUC5_URINARY_TRACT | 0.749 |
| BLUE1_HAEMATOPOIETIC_AND_LYMPHOID_TISSUE | 0.311 |
| SNU81_LARGE_INTESTINE | 0.767 |
| DANG_PANCREAS | 1 |
| U178_CENTRAL_NERVOUS_SYSTEM | 0.636 |
| OC316_OVARY | 0.486 |
| C33A_CERVIX | 1 |
| DAOY_CENTRAL_NERVOUS_SYSTEM | 0.958 ± 0.059 |
| SKM1_HAEMATOPOIETIC_AND_LYMPHOID_TISSUE | 1 |
| COLO680N_OESOPHAGUS | 0.653 |
| RH30_SOFT_TISSUE | 0.841 ± 0.22 |
| HCC78_LUNG | 0.807 |
| SKGII_ENDOMETRIUM | 0.894 |
| SW780_URINARY_TRACT | 1 |
| PECAPJ41CLONED2_UPPER_AERODIGESTIVE_TRACT | 0.662 |
| NZOV9_OVARY | 1 |
| SNU46_UPPER_AERODIGESTIVE_TRACT | 0.547 |
| DEL_HAEMATOPOIETIC_AND_LYMPHOID_TISSUE | 1 |
| A673_BONE | 1 |
| YKG1_CENTRAL_NERVOUS_SYSTEM | 0.584 |

| Test System | AUC of viability dose-response curve |
| --- | --- |
| MEL290_UVEA | 0.688 |
| ICC10_BILIARY_TRACT | 0.827 |
| SUSA_TESTIS | 0.578 |
| KOSC2CL343_UPPER_AERODIGESTIVE_TRACT | 0.875 |
| MOLP2_HAEMATOPOIETIC_AND_LYMPHOID_TISSUE | 0.555 |
| KE97_STOMACH | 1 |
| SCC25_UPPER_AERODIGESTIVE_TRACT | 1 |
| SKLMS1_SOFT_TISSUE | 0.829 |
| TE1_OESOPHAGUS | 0.884 |
| KATOIII_STOMACH | 0.581 |
| OE21_OESOPHAGUS | 1 |
| CAL148_BREAST | 1 |
| UMUC1_URINARY_TRACT | 0.703 |
| BEN_LUNG | 0.562 |
| BICR78_UPPER_AERODIGESTIVE_TRACT | 0.547 |
| MB1_THYROID | 0.776 |
| SKGT2_STOMACH | 0.887 |
| ASPC1_PANCREAS | 0.845 |
| FTC133_THYROID | 0.549 |
| MEG01_HAEMATOPOIETIC_AND_LYMPHOID_TISSUE | 0.74 |
